Measured values from patent EP1561465A2, “Methods of use of fluoroquinolone compounds against bacteria” (LG Life Sciences, Ltd., priority 1999, dated 2001).
In brackets after ≈: the same amount, converted by molar mass. Read-outs that look alike come from different tables or passages of the source.

What was measured:
Format in all cases: cell-based
Citrobacter freundii = test: MIC by NCCLS broth microdilution, 1100 Japanese clinical isolates 1997-1998
Klebsiella oxytoca = test: as above; settings: Klebsiella oxytoca (n=40)
Salmonella spp. [1] = test: MIC by agar dilution (NCCLS M7-A4), 288 enteropathogenic isolates, eight quinolones; settings: for MIC: ciprofloxacin MIC ≥[…], read-out: MIC
Moraxella catarrhalis = test: MIC by two-fold serial agar dilution, Sensitivity Disk agar-N (Kitasato isolates); settings: Moraxella catarrhalis (22)
[2] = MIC by agar dilution, Brucella HK agar, 491 anaerobic clinical isolates
Shigella spp. = test: MIC by NCCLS broth microdilution, 1100 Japanese clinical isolates 1997-1998; settings: Shigella spp. (n=34)
[3] = test system: Streptococcus pneumoniae and Haemophilus influenzae; test: MIC by broth microdilution (NCCLS), all isolates pooled
P. aeruginosa = test: MIC by two-fold serial agar dilution, quinolone-resistant strains; settings: Pseudomonas aeruginosa
Pseudomonas aeruginosa = test: MIC by agar dilution (NCCLS), 322 nosocomial Gram negative isolates, Athens 1998; settings: n = 57 isolates
Enterococcus faecium = test: MIC by NCCLS broth microdilution, 1100 Japanese clinical isolates 1997-1998; settings: for MIC: Enterococcus faecium
Proteus vulgaris = test: as above
Salmonella spp. [4] = test: as above; settings: Salmonella spp. (n=29)
Haemophilus influenzae = test: MIC by broth microdilution (NCCLS), dried MicroScan panels, clinical isolates 1998-1999; settings: for MIC90: Haemophilus influenzae
Staphylococcus aureus [5] = test: microbe, parasite or virus in culture
Streptococcus pyogenes = test: MIC by NCCLS broth microdilution, 1100 Japanese clinical isolates 1997-1998; settings: Streptococcus pyogenes (n=51)
Escherichia coli = test: as above; settings: for MIC50 / MIC90: Escherichia coli
Morganella morganii = test: as above; settings: Morganella morganii (n=40)
Proteus mirabilis = test: MIC by agar dilution (NCCLS), 322 nosocomial Gram negative isolates, Athens 1998; settings: Proteus mirabilis; n = 57 isolates
[6] = test system: Staphylococcus epidermidis; test: MIC by NCCLS broth microdilution, 1100 Japanese clinical isolates 1997-1998; settings: for MIC50 / MIC90: Staphylococcus epidermidis
Klebsiella pneumoniae [7] = test: MIC by NCCLS reference broth microdilution, 450 respiratory tract pathogens; settings: for MIC50 / MIC90: Klebsiella pneumoniae
Staphylococcus aureus [8] = test: MIC by agar macrodilution (NCCLS), 373 Gram positive isolates, Athens 1998; settings: Methicillin-susceptible Staphylococcus aureus (n = 85)
Aeromonas spp. = test: MIC by agar dilution (NCCLS M7-A4), 288 enteropathogenic isolates, eight quinolones; settings: Aeromonas spp. (n = 16)
Klebsiella pneumoniae [9] = test: MIC by agar dilution (NCCLS), 322 nosocomial Gram negative isolates, Athens 1998; settings: n = 56 isolates
[10] = Haemophilus influenzae (300 isolates)
[11] = Escherichia coli ciprofloxacin susceptible (n=37)
[12] = Staphylococcus epidermidis oxacillin resistant (n=43)
[13] = Staphylococcus epidermidis oxacillin susceptible (n=35)
[14] = extended spectrum β-lactamase negative (n = 30)
[15] = extended spectrum β-lactamase positive (n = 20)

CO/N=C1\CN(c2nc3c(cc2F)c(=O)c(C(=O)O)cn3C2CC2)CC1CN (racemic) [Gemifloxacin, (R,S)-7-(3-aminomethyl-4-methoxyiminopyrrolidin-1-yl)-1-cyclopropyl-6-fluoro-4-oxo-1,4-dihydro-1,8-naphthyridine-3-carboxylic acid]
MIC50 (Citrobacter freundii; Citrobacter freundii): 0.125 µg/mL (≈ 0.321 µM)
MIC90 (Citrobacter freundii; Citrobacter freundii (n=39)): 2 µg/mL (≈ 5.14 µM)
MIC Range (Citrobacter freundii; Citrobacter freundii (n=39)): 0.016 to 4 µg/mL
MIC50 (Klebsiella oxytoca): 0.032 µg/mL (≈ 0.0822 µM)
MIC90 (Klebsiella oxytoca): 4 µg/mL (≈ 10.3 µM)
MIC Range (Klebsiella oxytoca): ≤8 to 32000 ng/mL
MIC (Salmonella spp. [1]; S. hadar (n = 2)): 0.25 µg/mL (≈ 0.642 µM)
MIC (Salmonella spp. [1]; S. newport (n = 1)): 0.25 µg/mL (≈ 0.642 µM)
MIC (Salmonella spp. [1]; S. virchow (n = 2)): 0.12 µg/mL (≈ 0.308 µM)
% Susceptible (Salmonella spp. [1]; Salmonella spp. (n = 106)): 100%
MIC50 (Salmonella spp. [1]; Salmonella spp. (n = 106)): 0.03 µg/mL (≈ 0.077 µM)
MIC90 (Salmonella spp. [1]; Salmonella spp. (n = 106)): 0.12 µg/mL (≈ 0.308 µM)
MIC Range (Salmonella spp. [1]; Salmonella spp. (n = 106)): ≤0.015 to 0.25 µg/mL
MIC (Salmonella spp. [1]; Salmonella, S. tshiongwe (n = 1)): 0.25 µg/mL (≈ 0.642 µM)
MICs lower than those of the other fluoroquinolones studied (Salmonella spp. [1]; six Salmonella spp. with ciprofloxacin MICs ≥[…]): 1-4 dilutions
MIC50 (Moraxella catarrhalis): 0.031 µg/mL (≈ 0.0796 µM)
MIC90 (Moraxella catarrhalis): 0.031 µg/mL (≈ 0.0796 µM)
MIC Range (Moraxella catarrhalis): 0.016 to 0.031 µg/mL
MIC90 ([2]; clinical isolates of Bacteroides spp., Prevotella bivia and other Prevotella spp.): 8 to 32 µg/mL (≈ 20.5 to 82.2 µM)
MIC ([2]; read-out: MIC90s): 0.125 to 0.5 µg/mL (≈ 0.321 to 1.28 µM)
MIC50 (Shigella spp.): ≤ 8 ng/mL
MIC90 (Shigella spp.): 0.032 µg/mL (≈ 0.0822 µM)
MIC Range (Shigella spp.): ≤8 to 32 ng/mL
concentration at which all microorganisms were inhibited ([3]; 380 isolates (235 S. pneumoniae, 145 H. influenzae)): 0.06 µg/mL
concentration at which all isolates were inhibited ([3]; All 602 isolates): 0.12 µg/mL
MIC90 ([3]; all (380) isolates tested (235 S. pneumoniae, 145 H. influenzae)): 0.03 µg/mL (≈ 0.077 µM)
MIC90 ([3]; all isolates tested (602)): 0.06 µg/mL (≈ 0.154 µM)
MIC (P. aeruginosa): 2 µg/mL (≈ 5.14 µM)
MIC50 (Pseudomonas aeruginosa): 1 µg/mL (≈ 2.57 µM)
MIC90 (Pseudomonas aeruginosa): > 64 µg/mL
MIC50 (Enterococcus faecium; Enterococcus faecium (n=39)): 16 µg/mL (≈ 41.1 µM)
MIC90 (Enterococcus faecium; Enterococcus faecium (n=39)): 64 µg/mL (≈ 164 µM)
MIC Range (Enterococcus faecium; Enterococcus faecium (n=39)): 0.063 to 64 µg/mL
MIC (Enterococcus faecium; Enterococcus faecium (vanA) vancomycin resistant, strain TMS1): 16 µg/mL (≈ 41.1 µM)
MIC (Enterococcus faecium; Enterococcus faecium (vanA) vancomycin resistant, strain TMS2): 2 µg/mL (≈ 5.14 µM)
MIC (Enterococcus faecium; Enterococcus faecium (vanA) vancomycin resistant, strain TMS3): 4 µg/mL (≈ 10.3 µM)
MIC (Enterococcus faecium; Enterococcus faecium (vanA) vancomycin resistant, strain TMS4): 4 µg/mL (≈ 10.3 µM)
MIC (Enterococcus faecium; Enterococcus faecium (vanA) vancomycin resistant, strain TMS5): 2 µg/mL (≈ 5.14 µM)
MIC (Enterococcus faecium; Enterococcus laecium (van B) vancomycin resistant, strain TMS6): 32 µg/mL (≈ 82.2 µM)
MIC (Enterococcus faecium; Enterococcus laecium (van B) vancomycin resistant, strain TMS7): 32 µg/mL (≈ 82.2 µM)
MIC50 (Proteus vulgaris; Proteus vulgaris): 0.125 µg/mL (≈ 0.321 µM)
MIC Range (Proteus vulgaris; Proteus vulgaris (n=25)): 0.063 to 1 µg/mL
MIC90 (Proteus vulgaris; Proteus vulgaris (n=25), read-out: MIC90): 0.25 µg/mL (≈ 0.642 µM)
MIC50 (Salmonella spp. [4]): 0.032 µg/mL (≈ 0.0822 µM)
MIC90 (Salmonella spp. [4]): 0.032 µg/mL (≈ 0.0822 µM)
activity superior to that of levofloxacin (Haemophilus influenzae; H. influenzae): four-fold
MIC50 (Haemophilus influenzae; [10]): 4 ng/mL (≈ 0.0103 µM)
MIC Range (Haemophilus influenzae; [10]): ≤1.5 to 120 ng/mL
MIC90 (Haemophilus influenzae; [10]): 8 ng/mL (≈ 0.0205 µM)
MIC90 (Haemophilus influenzae; β-lactamase negative (234)): 8 ng/mL (≈ 0.0205 µM)
MIC90 (Haemophilus influenzae; β-lactamase positive (66)): 30 ng/mL (≈ 0.077 µM)
MIC Range (Staphylococcus aureus [5]; Methicillin-resistant (38)): 0.031 to 32 µg/mL
MIC Range (Staphylococcus aureus [5]; Methicillin-susceptible (9)): 0.031 to 0.25 µg/mL
increase of MIC (Staphylococcus aureus [5]; S. aureus KU2240 with a single mutation in NorA, DNA gyrase or topoisomerase IV): 2-4 fold
MIC90 (Staphylococcus aureus [5]; Staphylococcus aureus, Methicillin-susceptible (9), read-out: MIC90): 0.25 µg/mL (≈ 0.642 µM)
MIC (Staphylococcus aureus [5]; Staphylococcus aureus, S. aureus KU2240, mutant type Wild (wild strain)): 0.031 µg/mL (≈ 0.0796 µM)
MIC (Staphylococcus aureus [5]; Staphylococcus aureus, S. aureus KU2240, read-out: MIC): 0.031 µg/mL (≈ 0.0796 µM)
MIC (Staphylococcus aureus [5]; Staphylococcus aureus, S. aureus KU2241, mutant type NorA (efflux-mediated quinolone resistant)): 0.063 µg/mL (≈ 0.162 µM)
MIC (Staphylococcus aureus [5]; Staphylococcus aureus, S. aureus KU2242, mutant type T (DNA topoisomerase IV)): 0.063 µg/mL (≈ 0.162 µM)
MIC (Staphylococcus aureus [5]; Staphylococcus aureus, S. aureus KU2244, mutant type G (DNA gyrase)): 0.125 µg/mL (≈ 0.321 µM)
MIC (Staphylococcus aureus [5]; Staphylococcus aureus, S. aureus KU2246, mutant type T (DNA topoisomerase IV)): 0.125 µg/mL (≈ 0.321 µM)
MIC90 (Streptococcus pyogenes): 0.063 µg/mL (≈ 0.162 µM)
MIC Range (Streptococcus pyogenes): 0.016 to 0.125 µg/mL
MIC50 (Streptococcus pyogenes; read-out: MIC50): 0.032 µg/mL (≈ 0.0822 µM)
MIC Range (Escherichia coli; [11]): ≤8 to 125 ng/mL
MIC50 (Escherichia coli; Escherichia coli ciprofloxacin resistant (n=5)): 32 µg/mL (≈ 82.2 µM)
MIC90 (Escherichia coli; Escherichia coli ciprofloxacin resistant (n=5), values marked *: MIC80 value): 32 µg/mL (≈ 82.2 µM)
MIC50 (Escherichia coli; [11]): ≤ 0.008 µg/mL
MIC90 (Escherichia coli; [11]): 0.032 µg/mL (≈ 0.0822 µM)
MIC Range (Morganella morganii): 0.016 to 16 µg/mL
MIC50 (Morganella morganii; read-out: MIC50): 0.063 µg/mL (≈ 0.162 µM)
MIC90 (Morganella morganii; read-out: MIC90): 0.25 µg/mL (≈ 0.642 µM)
MIC50 (Proteus mirabilis): 0.25 µg/mL (≈ 0.642 µM)
MIC90 (Proteus mirabilis): 16 µg/mL (≈ 41.1 µM)
MIC Range [6, 12]: 0.032 to 4 µg/mL
MIC Range [6, 13]: ≤0.008 to 2 µg/mL
MIC50 [6, 12]: 0.5 µg/mL (≈ 1.28 µM)
MIC90 [6, 12]: 2 µg/mL (≈ 5.14 µM)
MIC50 [6, 13]: 0.032 µg/mL (≈ 0.0822 µM)
MIC90 [6, 13]: 0.5 µg/mL (≈ 1.28 µM)
MIC Range (Klebsiella pneumoniae [7]; Klebsiella pneumoniae (n = 50)): ≤7.5 to 1000 ng/mL
MIC50 (Klebsiella pneumoniae [7]; Klebsiella pneumoniae (n = 50)): 0.03 µg/mL (≈ 0.077 µM)
MIC90 (Klebsiella pneumoniae [7]; Klebsiella pneumoniae (n = 50)): 0.25 µg/mL (≈ 0.642 µM)
MIC50 (Klebsiella pneumoniae [7]; [14]): 0.015 µg/mL (≈ 0.0385 µM)
MIC90 (Klebsiella pneumoniae [7]; [14]): 0.06 µg/mL (≈ 0.154 µM)
MIC50 (Klebsiella pneumoniae [7]; [15]): 0.25 µg/mL (≈ 0.642 µM)
MIC90 (Klebsiella pneumoniae [7]; [15]): 0.5 µg/mL (≈ 1.28 µM)
MIC Range (Klebsiella pneumoniae [7]; [14]): ≤7.5 to 120 ng/mL
MIC Range (Klebsiella pneumoniae [7]; [15]): 30 to 1000 ng/mL
MIC Range (Staphylococcus aureus [8]): ≤0.03 to 4 µg/mL
MIC50 (Staphylococcus aureus [8]; read-out: MIC50): 0.06 µg/mL (≈ 0.154 µM)
MIC90 (Staphylococcus aureus [8]; read-out: MIC90): 0.125 µg/mL (≈ 0.321 µM)
% Susceptible (Aeromonas spp.): 100%
MIC50 (Aeromonas spp.): ≤ 0.015 µg/mL
MIC90 (Aeromonas spp.): 0.03 µg/mL (≈ 0.077 µM)
MIC Range (Aeromonas spp.): ≤0.015 to 0.12 µg/mL
MIC50 (Klebsiella pneumoniae [9]; Klebsiella pneumoniae): 0.06 µg/mL (≈ 0.154 µM)
MIC90 (Klebsiella pneumoniae [9]; Klebsiella pneumoniae): 0.5 µg/mL (≈ 1.28 µM)
MIC Range (Klebsiella pneumoniae [9]): ≤0.03 to 4 µg/mL
